Values after ≈ are worked out from the molar mass of the structure shown.
What was measured:
Type in all cases: cell-based
[1] = test system: Salmonella typhimurium IID 971; assay: Antibacterial activity, agar-dilution MIC, organism No. 8; conditions: Salmonella enterica; Organism No. 8, bouillon-agar; read-out: Minimum Inhibitory Concentration
Summary of the method: (§1)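 Agar dilution, bouillon-agar plates; MIC reported in μg/ml of medium.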

[2] = test system: Serratia marcescens IAM 1184; assay: Antibacterial activity, agar-dilution MIC, organism No. 13; conditions: Serratia marcescens, IAM1184; Organism No. 13, bouillon-agar; read-out: Minimum Inhibitory Concentration
Summary of the method: as §1

[3] = test system: Streptococcus pyogenes IFO 3340; assay: Antibacterial activity, agar-dilution MIC, organism No. 26; conditions: Streptococcus pyogenes, IFO3340; Organism No. 26, bouillon-agar; read-out: Minimum Inhibitory Concentration
Summary of the method: as §1

[4] = test system: Micrococcus luteus ATCC 9341; assay: Antibacterial activity, agar-dilution MIC, organism No. 25; conditions: Micrococcus luteus, ATCC9341; Organism No. 25, bouillon-agar; read-out: Minimum Inhibitory Concentration
Summary of the method: as §1

[5] = test system: Proteus rettgeri IFO 3850; assay: Antibacterial activity, agar-dilution MIC, organism No. 22; conditions: Providencia rettgeri, IFO3850; Organism No. 22, bouillon-agar; read-out: Minimum Inhibitory Concentration
Summary of the method: as §1

[6] = test system: Salmonella paratyphi-A 1015; assay: Antibacterial activity, agar-dilution MIC, organism No. 10; conditions: Salmonella enterica, PARATYPHI, read-out: Minimum Inhibitory Concentration
Summary of the method: as §1

Proteus vulgaris OX-19 = assay: Antibacterial activity, agar-dilution MIC, organism No. 20; conditions: Proteus vulgaris, OX19; Organism No. 20, bouillon-agar; read-out: Minimum Inhibitory Concentration
Summary of the method: as §1

[7] = test system: Enterobacter aerogenes ATCC 13048; assay: Antibacterial activity, agar-dilution MIC, organism No. 23; conditions: Klebsiella aerogenes, ATCC13048; Organism No. 23, bouillon-agar; read-out: Minimum Inhibitory Concentration
Summary of the method: as §1

[8] = test system: Proteus mirabilis IFO 3849; assay: Antibacterial activity, agar-dilution MIC, organism No. 19; conditions: Proteus mirabilis, IFO3849; Organism No. 19, bouillon-agar; read-out: Minimum Inhibitory Concentration
Summary of the method: as §1

[9] = test system: Escherichia coli NIHJ-JC-2; assay: Antibacterial activity, agar-dilution MIC, organism No. 5; conditions: Escherichia coli, NIHJJC2; Organism No. 5, bouillon-agar; read-out: Minimum Inhibitory Concentration
Summary of the method: as §1

[10] = test system: Bacillus subtilis ATCC 6633; assay: Antibacterial activity, agar-dilution MIC, organism No. 14; conditions: Bacillus subtilis, ATCC6633; Organism No. 14, bouillon-agar; read-out: Minimum Inhibitory Concentration
Summary of the method: as §1

[11] = test system: Proteus morganii IFO 3848; assay: Antibacterial activity, agar-dilution MIC, organism No. 18; conditions: Morganella morganii, IFO3848; Organism No. 18, bouillon-agar; read-out: Minimum Inhibitory Concentration
Summary of the method: as §1

[12] = test system: Pseudomonas aeruginosa PAO 1; assay: Antibacterial activity, agar-dilution MIC, organism No. 17; conditions: Pseudomonas aeruginosa, PAO1; Organism No. 17, bouillon-agar; read-out: Minimum Inhibitory Concentration
Summary of the method: as §1

[13] = test system: Streptococcus pyogenes Cook; assay: Antibacterial activity, agar-dilution MIC, organism No. 4; conditions: Streptococcus pyogenes; Organism No. 4, bouillon-agar; read-out: Minimum Inhibitory Concentration
Summary of the method: as §1

[14] = test system: Pseudomonas aeruginosa NCTC 10490; assay: Antibacterial activity, agar-dilution MIC, organism No. 16; conditions: Pseudomonas aeruginosa, NCTC10490; Organism No. 16, bouillon-agar; read-out: Minimum Inhibitory Concentration
Summary of the method: as §1

Enterobacter cloacae 963 = assay: Antibacterial activity, agar-dilution MIC, organism No. 24; conditions: Enterobacter cloacae, 963; Organism No. 24, bouillon-agar; read-out: Minimum Inhibitory Concentration
Summary of the method: as §1

Proteus vulgaris HX-19 = assay: Antibacterial activity, agar-dilution MIC, organism No. 21; conditions: Proteus vulgaris, HX19; Organism No. 21, bouillon-agar; read-out: Minimum Inhibitory Concentration
Summary of the method: as §1

[15] = test system: Streptococcus faecium IFO 3826; assay: Antibacterial activity, agar-dilution MIC, organism No. 27; conditions: Enterococcus faecium, IFO3826; Organism No. 27, bouillon-agar; read-out: Minimum Inhibitory Concentration
Summary of the method: as §1

[16] = test system: Salmonella shottmuelleri 8006; assay: Antibacterial activity, agar-dilution MIC, organism No. 11; conditions: Salmonella, 8006; Organism No. 11, bouillon-agar; read-out: Minimum Inhibitory Concentration
Summary of the method: as §1

[17] = test system: Candida albicans IAM 4905; assay: Antifungal activity, agar-dilution MIC, organism No. 29; conditions: Candida albicans, IAM4905; Organism No. 29, bouillon-agar; read-out: Minimum Inhibitory Concentration
Summary of the method: as §1

[18] = test system: Staphylococcus aureus FDA 209PJc-1; assay: Antibacterial activity, agar-dilution MIC, organism No. 1; conditions: Staphylococcus aureus, FDA209PJC1; Organism No. 1, bouillon-agar; read-out: Minimum Inhibitory Concentration
Summary of the method: as §1

[19] = test system: Salmonella enteritidis G 14; assay: Antibacterial activity, agar-dilution MIC, organism No. 12; conditions: Salmonella enterica, ENTERITIDIS; Organism No. 12, bouillon-agar; read-out: Minimum Inhibitory Concentration
Summary of the method: as §1

[20] = test system: Pseudomonas aeruginosa IFO 3445; assay: Antibacterial activity, agar-dilution MIC, organism No. 15; conditions: Pseudomonas aeruginosa, IFO3445; Organism No. 15, bouillon-agar; read-out: Minimum Inhibitory Concentration
Summary of the method: as §1

[21] = test system: Mycoplasma pneumoniae IID817; assay: Antimycoplasmal activity, MIC by phenol red colour change, organism No. 28; conditions: Mycoplasma, IID817; Organism No. 28, PPLO broth + 1% glucose, 37° C.; read-out: Minimum Inhibitory Concentration (MIC)
Experimental: Mycoplasma pneumoniae IID817 was used as the test microorganism in a culture medium prepared by adding 1% of glucose to "PPLO broth (manufactured by Difco Co.) liquid culture medium" at 37° C. with phenol red as an indicator, thereby culturing the test microorganism.

Salmonella typhi 901 = assay: Antibacterial activity, agar-dilution MIC, organism No. 9; conditions: Salmonella enterica, TYPHI, read-out: Minimum Inhibitory Concentration
Summary of the method: as §1

[22] = test system: Escherichia coli K12 C600 IAM 1264; assay: Antibacterial activity, agar-dilution MIC, organism No. 6; conditions: Escherichia coli, IAM1264; Organism No. 6, bouillon-agar; read-out: Minimum Inhibitory Concentration
Summary of the method: as §1

[23] = test system: Aspergillus niger IFO 6342; assay: Antifungal activity, agar-dilution MIC, organism No. 30; conditions: Aspergillus niger, IFO6342; Organism No. 30, bouillon-agar; read-out: Minimum Inhibitory Concentration
Summary of the method: as §1

[24] = test system: Staphylococcus aureus MS 353; assay: Antibacterial activity, agar-dilution MIC, organism No. 3; conditions: Staphylococcus aureus, MS353; Organism No. 3, bouillon-agar; read-out: Minimum Inhibitory Concentration
Summary of the method: as §1

[25] = test system: Staphylococcus aureus Terajima; assay: Antibacterial activity, agar-dilution MIC, organism No. 2; conditions: Staphylococcus aureus; Organism No. 2, bouillon-agar; read-out: Minimum Inhibitory Concentration
Summary of the method: as §1

[26] = test system: Klebsiella pneumoniae PCI-602; assay: Antibacterial activity, agar-dilution MIC, organism No. 7; conditions: Klebsiella pneumoniae, PCI602; Organism No. 7, bouillon-agar; read-out: Minimum Inhibitory Concentration
Summary of the method: as §1

Row | Structure (SMILES) | MIC [1] [µg/mL] | MIC [2] [µg/mL] | MIC [3] [µg/mL] | MIC [4] [µg/mL] | MIC [5] [µg/mL] | MIC [6] [µg/mL] | MIC (Proteus vulgaris OX-19) [µg/mL] | MIC [7] [µg/mL] | MIC [8] [µg/mL] | MIC [9] [µg/mL] | MIC [10] [µg/mL] | MIC [11] [µg/mL] | MIC [12] [µg/mL] | MIC [13] [µg/mL] | MIC [14] [µg/mL] | MIC (Enterobacter cloacae 963) [µg/mL] | MIC (Proteus vulgaris HX-19) [µg/mL] | MIC [15] [µg/mL] | MIC [16] [µg/mL] | MIC [17] [µg/mL] | other results
1 | [C-]#[N+]C12CC3(/C=C/C(=O)Nc4ccc(C(=O)OC)cc4)OC3C1O2 (stereo not drawn) [compound 49] | 0.39 (≈ 1.2 µM) | 12.5 (≈ 38.3 µM) | < 0.05 | < 0.05 | < 0.05 | < 0.05 | < 0.05 | > 200 | > 200 | 50 (≈ 153 µM) | 0.78 (≈ 2.39 µM) | 12.5 (≈ 38.3 µM) | > 200 | 12.5 (≈ 38.3 µM) | > 200 | 25 (≈ 76.6 µM) | < 0.05 | 25 (≈ 76.6 µM) | < 0.05 | 1.56 (≈ 4.78 µM) | MIC [18]: < 0.05 µg/mL; MIC [19]: 0.39 µg/mL (≈ 1.2 µM); MIC [20]: > 200 µg/mL; MIC [21]: < 0.2 µg/mL; MIC (Salmonella typhi 901): 0.1 µg/mL (≈ 0.306 µM); MIC [22]: 50 µg/mL (≈ 153 µM); MIC [23]: 3.13 µg/mL (≈ 9.59 µM); MIC [24]: < 0.05 µg/mL; MIC [25]: < 0.05 µg/mL; MIC [26]: < 0.05 µg/mL
2 | [C-]#[N+]C12CC3(/C=C/C(=O)Nc4ccc(C(C)=O)cc4)OC3C1O2 (stereo not drawn) [compound 80] | 100 (≈ 322 µM) | > 200 | 3.13 (≈ 10.1 µM) | > 200 | > 200 | 3.13 (≈ 10.1 µM) | 1.56 (≈ 5.03 µM) | > 200 | > 200 | > 200 | 6.25 (≈ 20.1 µM) | 6.25 (≈ 20.1 µM) | > 200 | 6.25 (≈ 20.1 µM) | > 200 | > 200 | 1.56 (≈ 5.03 µM) | 1.56 (≈ 5.03 µM) | 3.13 (≈ 10.1 µM) | 0.39 (≈ 1.26 µM) | MIC [18]: 0.39 µg/mL (≈ 1.26 µM); MIC [19]: 12.5 µg/mL (≈ 40.3 µM); MIC [20]: > 200 µg/mL; MIC [21]: < 0.2 µg/mL; MIC (Salmonella typhi 901): 12.5 µg/mL (≈ 40.3 µM); MIC [22]: > 200 µg/mL; MIC [23]: 3.13 µg/mL (≈ 10.1 µM); MIC [24]: 0.78 µg/mL (≈ 2.51 µM); MIC [25]: 1.56 µg/mL (≈ 5.03 µM); MIC [26]: 1.56 µg/mL (≈ 5.03 µM)
3 | [C-]#[N+]C12CC3(/C=C/C(N)=O)OC3C1O2 (stereo not drawn) [Compound No. 19] | 12.5 (≈ 65 µM) | 50 (≈ 260 µM) | 6.25 (≈ 32.5 µM) | 25 (≈ 130 µM) | 6.25 (≈ 32.5 µM) | 6.25 (≈ 32.5 µM) | 3.13 (≈ 16.3 µM) | 100 (≈ 520 µM) | 50 (≈ 260 µM) | 6.25 (≈ 32.5 µM) | 50 (≈ 260 µM) | 3.13 (≈ 16.3 µM) | 200 (≈ 1040 µM) | 100 (≈ 520 µM) | > 200 | 6.25 (≈ 32.5 µM) | 1.56 (≈ 8.12 µM) | 100 (≈ 520 µM) | 12.5 (≈ 65 µM) | 12.5 (≈ 65 µM) | MIC [18]: 6.25 µg/mL (≈ 32.5 µM); MIC [19]: 3.13 µg/mL (≈ 16.3 µM); MIC [20]: 100 µg/mL (≈ 520 µM); MIC [21]: < 0.2 µg/mL; MIC (Salmonella typhi 901): 1.56 µg/mL (≈ 8.12 µM); MIC [22]: 6.25 µg/mL (≈ 32.5 µM); MIC [23]: 6.25 µg/mL (≈ 32.5 µM); MIC [24]: 6.25 µg/mL (≈ 32.5 µM); MIC [25]: 25 µg/mL (≈ 130 µM); MIC [26]: 12.5 µg/mL (≈ 65 µM)

— patent US4684664A, “Derivatives of β-(4-isocyano-1,2,3,4-diepoxycyclopentyl) acrylic acid” (Kureha Kagaku Kogyo Kabushiki Kaisha, priority 1984, dated 1987)
